PubChem BioAssay (NCI)
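Protocol summary: plate cells (96-well), add compound at 5 concentrations, incubate 48 h, interpolate endpoints linearly. GI50 is the concentration that inhibits growth by half. The concentration for full growth arrest is given as TGI.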

Key:
Experiment in all cases: NCI tumour cell line growth inhibition, 48 h
SW-620 colon = tested on: SW-620 colon
786-0 renal = tested on: 786-0 renal
SF-295 CNS = tested on: SF-295 CNS
RPMI-8226 leukemia = tested on: RPMI-8226 leukemia
MALME-3M melanoma = tested on: MALME-3M melanoma
SF-539 CNS = tested on: SF-539 CNS
NCI-H226 lung = tested on: NCI-H226 lung
M14 melanoma = tested on: M14 melanoma
SK-MEL-28 melanoma = tested on: SK-MEL-28 melanoma
SF-268 CNS = tested on: SF-268 CNS
SNB-75 CNS = tested on: SNB-75 CNS
HCC-2998 colon = tested on: HCC-2998 colon
SK-MEL-2 melanoma = tested on: SK-MEL-2 melanoma
PC-3 prostate = tested on: PC-3 prostate
HL-60(TB) leukemia = tested on: HL-60(TB) leukemia
OVCAR-8 ovarian = tested on: OVCAR-8 ovarian
CAKI-1 renal = tested on: CAKI-1 renal
UACC-257 melanoma = tested on: UACC-257 melanoma
NCI/ADR-RES ovarian = tested on: NCI/ADR-RES ovarian
EKVX NSCLC = tested on: EKVX NSCLC
RXF 393 renal = tested on: RXF 393 renal
A549 NSCLC = tested on: A549 NSCLC
MDA-MB-468 breast = tested on: MDA-MB-468 breast
LOX IMVI melanoma = tested on: LOX IMVI melanoma
SN12C renal = tested on: SN12C renal
HOP-62 NSCLC = tested on: HOP-62 NSCLC
T-47D breast = tested on: T-47D breast
OVCAR-3 ovarian = tested on: OVCAR-3 ovarian
CCRF-CEM leukemia = tested on: CCRF-CEM leukemia
K-562 leukemia = tested on: K-562 leukemia
IGROV1 ovarian = tested on: IGROV1 ovarian
SR leukemia = tested on: SR leukemia
MDA-MB-435 = tested on: MDA-MB-435
UO-31 renal = tested on: UO-31 renal
COLO 205 colon = tested on: COLO 205 colon
U251 CNS = tested on: U251 CNS
TK-10 renal = tested on: TK-10 renal
HS 578T breast = tested on: HS 578T breast
MOLT-4 leukemia = tested on: MOLT-4 leukemia
NCI-H23 lung = tested on: NCI-H23 lung
OVCAR-5 ovarian = tested on: OVCAR-5 ovarian
ACHN renal = tested on: ACHN renal
HT29 colon = tested on: HT29 colon
UACC-62 melanoma = tested on: UACC-62 melanoma
DU-145 prostate = tested on: DU-145 prostate
OVCAR-4 ovarian = tested on: OVCAR-4 ovarian
KM12 colon = tested on: KM12 colon
SK-OV-3 ovarian = tested on: SK-OV-3 ovarian
SNB-19 CNS = tested on: SNB-19 CNS
MDA-MB-231 breast = tested on: MDA-MB-231 breast
A498 renal = tested on: A498 renal
NCI-H522 lung = tested on: NCI-H522 lung
SK-MEL-5 melanoma = tested on: SK-MEL-5 melanoma
HCT-116 colon = tested on: HCT-116 colon
BT-549 breast = tested on: BT-549 breast
HOP-92 NSCLC = tested on: HOP-92 NSCLC
HCT-15 colon = tested on: HCT-15 colon
MCF7 breast = tested on: MCF7 breast
NCI-H460 lung = tested on: NCI-H460 lung

O=C1Nc2cc(-c3ccc(NS(=O)(=O)c4ccc(-c5ccccc5)cc4)cc3)ccc2/C1=C/c1ccc[nH]1
GI50 (SW-620 colon): 2450 nM
TGI (SW-620 colon): 6.56 µM
GI50 (786-0 renal): 3.91 µM
TGI (786-0 renal): 13.9 µM
GI50 (SF-295 CNS): 7.29 µM
TGI (SF-295 CNS): 19.8 µM
GI50 (RPMI-8226 leukemia): 3.09 µM
TGI (RPMI-8226 leukemia): 15.7 µM
GI50 (MALME-3M melanoma): 2790 nM
TGI (MALME-3M melanoma): 9.7 µM
GI50 (SF-539 CNS): 3.66 µM
TGI (SF-539 CNS): 14.7 µM
GI50 (NCI-H226 lung): 1900 nM
TGI (NCI-H226 lung): 14.8 µM
GI50 (M14 melanoma): 4.7 µM
TGI (M14 melanoma): 16.8 µM
GI50 (SK-MEL-28 melanoma): 3.77 µM
TGI (SK-MEL-28 melanoma): 13.5 µM
GI50 (SF-268 CNS): 4.26 µM
TGI (SF-268 CNS): 16.3 µM
GI50 (SNB-75 CNS): 12.8 µM
TGI (SNB-75 CNS): 35.6 µM
GI50 (HCC-2998 colon): 4.88 µM
TGI (HCC-2998 colon): 28.4 µM
GI50 (SK-MEL-2 melanoma): 11.8 µM
TGI (SK-MEL-2 melanoma): 24.4 µM
GI50 (PC-3 prostate): 3.27 µM
TGI (PC-3 prostate): 18.1 µM
GI50 (HL-60(TB) leukemia): 7.67 µM
TGI (HL-60(TB) leukemia): 31.7 µM
GI50 (OVCAR-8 ovarian): 3.45 µM
TGI (OVCAR-8 ovarian): 12.2 µM
GI50 (CAKI-1 renal): 5.64 µM
TGI (CAKI-1 renal): 18.4 µM
GI50 (UACC-257 melanoma): 5.84 µM
TGI (UACC-257 melanoma): 20.4 µM
GI50 (NCI/ADR-RES ovarian): 6.29 µM
TGI (NCI/ADR-RES ovarian): 30.9 µM
GI50 (EKVX NSCLC): 225 nM
TGI (EKVX NSCLC): 8.94 µM
GI50 (RXF 393 renal): 2480 nM
TGI (RXF 393 renal): 5.56 µM
GI50 (A549 NSCLC): 1820 nM
TGI (A549 NSCLC): 4.86 µM
GI50 (MDA-MB-468 breast): 40.2 nM
TGI (MDA-MB-468 breast): 1040 nM
GI50 (LOX IMVI melanoma): 2590 nM
TGI (LOX IMVI melanoma): 6.82 µM
GI50 (SN12C renal): 3.07 µM
TGI (SN12C renal): 12 µM
GI50 (HOP-62 NSCLC): 8.59 µM
TGI (HOP-62 NSCLC): 21.8 µM
GI50 (T-47D breast): 136 nM
TGI (T-47D breast): 3.57 µM
GI50 (OVCAR-3 ovarian): 1940 nM
TGI (OVCAR-3 ovarian): 4.65 µM
GI50 (CCRF-CEM leukemia): 5.82 µM
TGI (CCRF-CEM leukemia): 18.6 µM
GI50 (K-562 leukemia): 3.8 µM
TGI (K-562 leukemia): 16.6 µM
GI50 (IGROV1 ovarian): 8.34 µM
TGI (IGROV1 ovarian): 22.2 µM
GI50 (SR leukemia): 1900 nM
TGI (SR leukemia): 10.9 µM
GI50 (MDA-MB-435): 5.71 µM
TGI (MDA-MB-435): 21 µM
GI50 (UO-31 renal): 10.7 µM
TGI (UO-31 renal): 29.1 µM
GI50 (COLO 205 colon): 3.7 µM
TGI (COLO 205 colon): 14 µM
GI50 (U251 CNS): 2180 nM
TGI (U251 CNS): 5.73 µM
GI50 (TK-10 renal): 2660 nM
TGI (TK-10 renal): 11 µM
GI50 (HS 578T breast): 12.2 µM
TGI (HS 578T breast): 56.7 µM
GI50 (MOLT-4 leukemia): 3.88 µM
TGI (MOLT-4 leukemia): 17.7 µM
GI50 (NCI-H23 lung): 1200 nM
TGI (NCI-H23 lung): 5.91 µM
GI50 (OVCAR-5 ovarian): 3.42 µM
TGI (OVCAR-5 ovarian): 14.3 µM
GI50 (ACHN renal): 6.16 µM
TGI (ACHN renal): 18.7 µM
GI50 (HT29 colon): 2420 nM
TGI (HT29 colon): 6.71 µM
GI50 (UACC-62 melanoma): 5.37 µM
TGI (UACC-62 melanoma): 19.7 µM
GI50 (DU-145 prostate): 2090 nM
TGI (DU-145 prostate): 4.59 µM
GI50 (OVCAR-4 ovarian): 2100 nM
TGI (OVCAR-4 ovarian): 11.9 µM
GI50 (KM12 colon): 2480 nM
TGI (KM12 colon): 18.7 µM
GI50 (SK-OV-3 ovarian): 13.3 µM
TGI (SK-OV-3 ovarian): 26 µM
GI50 (SNB-19 CNS): 5.91 µM
TGI (SNB-19 CNS): 18.7 µM
GI50 (MDA-MB-231 breast): 2960 nM
TGI (MDA-MB-231 breast): 11.6 µM
GI50 (A498 renal): 12.6 µM
TGI (A498 renal): 25.1 µM
GI50 (NCI-H522 lung): 2270 nM
TGI (NCI-H522 lung): 7.94 µM
GI50 (SK-MEL-5 melanoma): 6.91 µM
TGI (SK-MEL-5 melanoma): 21.8 µM
GI50 (HCT-116 colon): 3.28 µM
TGI (HCT-116 colon): 11.2 µM
GI50 (BT-549 breast): 2490 nM
TGI (BT-549 breast): 7.75 µM
GI50 (HOP-92 NSCLC): 2200 nM
TGI (HOP-92 NSCLC): 7.22 µM
GI50 (HCT-15 colon): 2260 nM
TGI (HCT-15 colon): 7.86 µM
GI50 (MCF7 breast): 74.6 nM
TGI (MCF7 breast): 1540 nM
GI50 (NCI-H460 lung): 351 nM
TGI (NCI-H460 lung): 2130 nM
